We go through nine compounds from patent publication US12653191B2, “Active compound combinations” (Bayer Aktiengesellschaft, priority 2020, dated 2026).

The test system of one experiment is Botrytis cinerea. The experiment can be described thus: in vitro-Test with fungal microorganisms, Method A (tables B1-B14). The note with it: alone. Format: cell-based. The method, then: (§1) Example: In Vitro-Test with Fungal Microorganisms
(§2) Wells of 96-well microtiter plates are filled with 10 μl of a preparation of test compound or compound combination in methanol+emulsifier alkylaryl-polyglycol-ether. Thereafter, the solvent is evaporated in a hood. At the next step, 100 μl of liquid potato dextrose medium is given into each well, that has been amended with an appropriate concentration of spores or mycelium suspension of the test fungus.
(§3) With the aid of a photometer, the extinction in all wells is measured at the wavelength of 620 nm.
(§4) The microtiter plates are incubated at 20° C. and 85% relative humidity. The inhibition of growth is determined again photometrically 3-5 days after the application. Efficacy is calculated in relation to the untreated control, 0% efficacy means fungal growth as high as in untreated control while 100% efficacy means no fungal growth is measured.
(§5) The data in tables A1 to A12, B1 to B14, C1 to C10, D1 to D8, E1 to E8, F1 to F11, G1 to G4, H1 to H4 and I1 to I5 were collected according to Method A. The data in tables A13 to A22, B15 to B18, C11 to C20, E9 to E16, F12 to F15, G5 to G15, H5 to H8, I6 to I11 and J1 to J11 were collected according to Method B.

For a further experiment, the system named is Diaporthe citri. The experiment can be described thus: in vitro-Test with fungal microorganisms, Method A (tables F1-F11). Format: cell-based. How it is done:
as §1, §2, §3, §4, §5

The subject of experiment [1] is Colletotrichum lindemuthianum. As to the kind of experiment: in vitro-Test with fungal microorganisms, Method A (tables D1-D8). Format: cell-based. How it is done:
as §1, §2, §3, §4, §5

The test system of experiment [2] is Cordana musae. The experiment can be described thus: in vitro-Test with fungal microorganisms, Method B (tables E9-E16). Format: cell-based. The note with it: single active. How it is done:
as §1
(§6) Wells of 96-well microtiter plates are filled with 30 μl of a preparation of test compound or compound combination in methanol+emulsifier alkylaryl-polyglycol-ether. Thereafter, the solvent is evaporated in a hood. At the next step, 200 μl of liquid growth medium is given, that has been amended with an appropriate concentration of spores or mycelium suspension of the test fungus.
(§7) With the aid of a photometer, the extinction in all wells is measured at the wavelength of 600 nm.
(§8) The microtiter plates are incubated for 3 to 7 days at 20° C. and 85% relative humidity. After the incubation inhibition of growth is determined photometrically. Efficacy is calculated in relation to the untreated control, 0% efficacy means fungal growth as high as in untreated control while 100% efficacy means no fungal growth is measured.
as §5

For the next experiment, the system named is Alternaria alternata. As to the kind of experiment: in vitro-Test with fungal microorganisms, Method B (tables A13-A22). Format: cell-based. How it is done:
as §1, §6, §7, §8, §5

The next experiment relates to Fusarium culmorum. As to the kind of experiment: in vitro-Test with fungal microorganisms, Method B (tables G5-G15). Format: cell-based. The method, then:
as §1, §6, §7, §8, §5

Experiment [3] has as its system Ustilago segetum var. avenae. The experiment can be described thus: in vitro-Test with fungal microorganisms, Method B (tables I6-I11). Format: cell-based. How it is done:
as §1, §6, §7, §8, §5

The subject of the next experiment is Colletotrichum coccodes. The experiment can be described thus: in vitro-Test with fungal microorganisms, Method B (tables J1-J11). Format: cell-based. How it is done:
as §1, §6, §7, §8, §5

In experiment [4] the test system is Cercospora beticola. As to the kind of experiment: in vitro-Test with fungal microorganisms, Method B (tables C11-C20). Format: cell-based. How it is done: as §1, §6, §7, §8, §5
The subject of a further experiment is Alternaria alternate. The experiment can be described thus: in vitro-Test with fungal microorganisms, Method A (tables A1-A12). Format: cell-based, Alternaria alternata. The settings on record: Alternaria, applied alone, read-out: Efficacy %. How it is done:
as §1, §2, §3, §4, §5

Experiment [5] concerns Cordana musae. The experiment can be described thus: in vitro-Test with fungal microorganisms, Method A (tables E1-E8). Format: cell-based. The note with it: Neocordana musae, single substance, read-out: Efficacy %. The method, then:
as §1, §2, §3, §4, §5

The test system of experiment [6] is Cercospora beticola. The experiment can be described thus: in vitro-Test with fungal microorganisms, Method A (tables C1-C10). Format: cell-based. The method, then:
as §1, §2, §3, §4, §5

The mark [7] stands for this setting: single active compound at 4 ppm.
[8] abbreviates: Fusarium culmorum, alone, read-out: Efficacy.
The mark [9] stands for this setting: Fusarium culmorum, single active compound, read-out: Efficacy.
Setting [10] is: Cercospora beticola, read-out: Efficacy %.
Setting [11] is: Cercospora beticola, single compound, read-out: Efficacy %.

Where “and” joins values, the source holds several entries; their conditions need not be identical. Equal entries are not always repeated. Where two headings read alike, the source gives them in different places.

Regarding `CCO[PH](=O)[O-].CCO[PH](=O)[O-].CCO[PH](=O)[O-].[Al+3]` [(15.012) fosetylaluminium], the Efficacy % is on record as 0% in the experiment on Botrytis cinerea (0.8 ppm), 13% in the experiment on Botrytis cinerea (4.0 ppm) and 1% with Botrytis cinerea (100.0 ppm).

On to `CCO[PH](=O)[O-].CCO[PH](=O)[O-].CCO[PH](=O)[O-].[Al+3]` [(15.012) fosetyl-aluminium, fosetyl-aluminium], for which the Efficacy in the experiment with Diaporthe citri (Table F11, 0.8 ppm alone) is reported as 23%; with Diaporthe citri (Table F11, 4.0 ppm alone), 0%; in the experiment with Diaporthe citri (Table F11, 20.0 ppm alone) it was 0%; in the experiment on Diaporthe citri (Table F11, 100.0 ppm alone), 0%; in the experiment on Diaporthe citri (applied alone, 0.8 ppm), 0%; in the experiment on Diaporthe citri (applied alone, 4.0 ppm), 23%. The Efficacy in the experiment on Diaporthe citri (applied alone, 100.0 ppm) came out at 30%. The Efficacy % in [1] (mixing partner alone, 4.0 ppm) is 0%; in experiment [1] (mixing partner alone, 20.0 ppm) it was 8%; in experiment [1] (mixing partner alone, 100.0 ppm) it was 70%; in experiment [1] (single active at 0.8 ppm), 0%; in [1] (single active at 4.0 ppm), 0%; in [1] (single active at 100.0 ppm), 39% and 58%.

`CCO[PH](=O)[O-].CCO[PH](=O)[O-].CCO[PH](=O)[O-].[Al+3]` [(15.012) fosetyl-al]: the Efficacy in the experiment with Cordana musae [2] (0.8 ppm) is on record as 0%.

With `CCCN(CC)CC1COC2(CCC(C(C)(C)C)CC2)O1` (stereo not drawn) [spiroxamin], the Efficacy was found to be 3% with Alternaria alternata (single compound, 0.8 ppm); 15% in the experiment on Alternaria alternata (single compound, 4 ppm); 15% in the experiment on Alternaria alternata (single compound, 20 ppm); 3% with Fusarium culmorum (0.8 ppm, alone).

Consider `COCC(=O)N(c1c(C)cccc1C)[C@H](C)C(=O)OC` [(12.004) metalaxylm], for which the Efficacy % in [3] (0.8 ppm) amounted to 8%; in [3] (100 ppm), 3%; in the experiment with Colletotrichum coccodes (single active compound at 0.8 ppm), 40%; in the experiment with Colletotrichum coccodes (setting [7]), 24%; in the experiment with Colletotrichum coccodes (single active compound at 20 ppm), 48%; in the experiment with Colletotrichum coccodes (single active compound at 100 ppm), 61%.

Regarding `OC(Cc1ccccc1Cl)(Cn1nc[nH]c1=S)C1(Cl)CC1` (stereo not drawn) [(1.018) prothioconazole, prothioconazole], the inhibition of growth at 0.004 ppm in the experiment on Alternaria alternata (Alternaria alternata, single compound, 0.004 ppm, read-out: Efficacy) was 46%; in the experiment on Colletotrichum coccodes (Colletotrichum coccodes, single active compound at 0.004 ppm, read-out: Efficacy %), 0%; in the experiment with Fusarium culmorum (setting [8]), 6%; in the experiment on Fusarium culmorum (setting [9]), 22%; with Cordana musae [2] (Neocordana musae, 0.004 ppm, read-out: Efficacy), 0%; in the experiment with Cercospora beticola [4] (setting [10]), 39%. Also, in the experiment with Cercospora beticola [4] (setting [11]), the inhibition of growth at 0.004 ppm stood at 30%. For the same compound, the inhibition of growth at 0.02 ppm in the experiment on Alternaria alternata (Alternaria alternata, single compound, 0.02 ppm, read-out: Efficacy) is 89%; in the experiment with Colletotrichum coccodes (Colletotrichum coccodes, single active compound at 0.02 ppm, read-out: Efficacy %), 1%; in the experiment on Fusarium culmorum (setting [8]), 52%; in the experiment with Fusarium culmorum (setting [9]), 22%; with Cercospora beticola [4] (Cercospora beticola, single compound, 0.02 ppm, read-out: Efficacy %), 0%. The inhibition of growth at 0.1 ppm worked out at 100% with Alternaria alternata (Alternaria alternata, single compound, 0.1 ppm, read-out: Efficacy); 98% in the experiment with Fusarium culmorum (Fusarium culmorum, 0.1 ppm, alone, read-out: Efficacy); 81% with Cordana musae [2] (Neocordana musae, 0.1 ppm, read-out: Efficacy); 100% in the experiment on Cercospora beticola [4] (setting [10]); 15% in the experiment on Cercospora beticola [4] (setting [11]). Besides, the inhibition of growth at 0.5 ppm in the experiment on Alternaria alternata (Alternaria alternata, single compound, 0.5 ppm, read-out: Efficacy) came to 99%; in the experiment on Colletotrichum coccodes (Colletotrichum coccodes, single active compound at 0.5 ppm, read-out: Efficacy %) it was 100%; in the experiment on Cordana musae [2] (Neocordana musae, 0.5 ppm, read-out: Efficacy), 100%; with Cercospora beticola [4] (setting [10]), 100%; in the experiment with Cercospora beticola [4] (setting [11]), 0%. In addition, the inhibition of growth at 0.008 ppm with Alternaria alternate (0.008 ppm) amounted to 20%; with Botrytis cinerea (Botrytis cinerea, 0.008 ppm, read-out: Efficacy %) it was 0%; with Diaporthe citri (Diaporthe citri, applied alone, 0.008 ppm, read-out: Efficacy) it was 0%; in [1] (Colletotrichum lindemuthianum, mixing partner alone, 0.008 ppm, read-out: Efficacy %) it was 0%; in the experiment with Cercospora beticola [6] (Cercospora beticola, 0.008 ppm, read-out: Efficacy %), 6%. Further, the inhibition of growth at 0.04 ppm with Alternaria alternate (0.04 ppm) was found to be 15%; in the experiment with Botrytis cinerea (Botrytis cinerea, 0.04 ppm, read-out: Efficacy %), 48%; with Cordana musae [5] (0.04 ppm) it was 6%; with Diaporthe citri (Diaporthe citri, applied alone, 0.04 ppm, read-out: Efficacy), 95%; in [1] (Colletotrichum lindemuthianum, mixing partner alone, 0.04 ppm, read-out: Efficacy %), 20%; in the experiment on Cercospora beticola [6] (Cercospora beticola, 0.04 ppm alone, read-out: Efficacy %) it was 22%. In the experiment on Cercospora beticola [6] (Cercospora beticola, 0.04 ppm, read-out: Efficacy %), the inhibition of growth at 0.04 ppm turned out to be 38%. Moreover, the inhibition of growth at 0.2 ppm turned out to be 94% in the experiment on Alternaria alternate (0.2 ppm); 94% in the experiment with Botrytis cinerea (Botrytis cinerea, 0.2 ppm, read-out: Efficacy %); 100% in the experiment on Diaporthe citri (Diaporthe citri, applied alone, 0.2 ppm, read-out: Efficacy); 100% in experiment [1] (Colletotrichum lindemuthianum, mixing partner alone, 0.2 ppm, read-out: Efficacy %); 100% in the experiment with Cercospora beticola [6] (Cercospora beticola, 0.2 ppm alone, read-out: Efficacy %); 100% in the experiment with Cercospora beticola [6] (Cercospora beticola, 0.2 ppm, read-out: Efficacy %). Further, the inhibition of growth at 1 ppm came out at 100% with Botrytis cinerea (Botrytis cinerea, 1.0 ppm, read-out: Efficacy %); 100% in the experiment with Cordana musae [5] (1.0 ppm); 99% in the experiment on Diaporthe citri (Diaporthe citri, applied alone, 1.0 ppm, read-out: Efficacy); 100% in experiment [1] (Colletotrichum lindemuthianum, mixing partner alone, 1.0 ppm, read-out: Efficacy %); 100% in the experiment with Cercospora beticola [6] (Cercospora beticola, 1.0 ppm alone, read-out: Efficacy %); 100% with Cercospora beticola [6] (Cercospora beticola, 1.0 ppm, read-out: Efficacy %). Besides, the Efficacy % with Cercospora beticola [6] (0.2 ppm alone) came to 98%.

On to `CS(=O)(=O)Oc1cccc(Cl)c1C1CC(c2csc(C3CCN(C(=O)Cn4nc(C(F)F)cc4C(F)F)CC3)n2)=NO1` (stereo not drawn) [(15.043) fluoxapiprolin, fluoxa-piprolin], for which the Efficacy % in the experiment on Colletotrichum coccodes (0.8 ppm) is 0%; in the experiment on Colletotrichum coccodes (20 ppm), 0%; in the experiment with Colletotrichum coccodes (setting [7]) it was 0% and 2%; with Cercospora beticola [4] (single compound, 0.8 ppm) it was 0%; with Cercospora beticola [4] (single compound, 4 ppm), 3% and 0%; in the experiment on Cercospora beticola [4] (single compound, 20 ppm), 0%. In addition, the Efficacy is 13% in the experiment on Fusarium culmorum (single active compound, 0.8 ppm); 14% with Fusarium culmorum (single active compound, 4 ppm); 0% in the experiment on Cordana musae [2] (20 ppm).

`CCO[PH](=O)O` [fosetylal]: the Efficacy was 0% in the experiment with Alternaria alternata (4 ppm); 4% in the experiment on Alternaria alternata (20 ppm); 8% in the experiment on Alternaria alternata (100 ppm); 0% with Alternaria alternata (single compound, 0.8 ppm); 2% in the experiment with Alternaria alternata (single compound, 4 ppm); 11% with Fusarium culmorum (0.8 ppm, alone).

As for `Fc1ccc(Oc2ccnc3cc(Cl)cc(Cl)c23)cc1` [(13.005) quinoxifen], the Efficacy % in the experiment with Cercospora beticola [4] (single compound, 0.08 ppm) was found to be 3%.
